Measurements as given in PMC7329812 (Scientific Reports, 2020).
Like-named read-outs stand apart in the source and are kept apart here.

Tests used:
NaChBac = NaChBac (Halalkalibacterium halodurans (Bacillus halodurans), UniProt Q9KCR8); assay: cell-based; assay type: cell-based; conditions: for inhibition at 7 µM: HEK293, read-out: inhibition of WT NaChBac peak currents
F227A NaChBac = assay type: cell-based, Bacillus halodurans
human NaV1.7 = human NaV1.7 (Homo sapiens, UniProt Q15858); assay: cell-based; assay type: cell-based
Sequence of human NaV1.7 (Q15858 whole entry): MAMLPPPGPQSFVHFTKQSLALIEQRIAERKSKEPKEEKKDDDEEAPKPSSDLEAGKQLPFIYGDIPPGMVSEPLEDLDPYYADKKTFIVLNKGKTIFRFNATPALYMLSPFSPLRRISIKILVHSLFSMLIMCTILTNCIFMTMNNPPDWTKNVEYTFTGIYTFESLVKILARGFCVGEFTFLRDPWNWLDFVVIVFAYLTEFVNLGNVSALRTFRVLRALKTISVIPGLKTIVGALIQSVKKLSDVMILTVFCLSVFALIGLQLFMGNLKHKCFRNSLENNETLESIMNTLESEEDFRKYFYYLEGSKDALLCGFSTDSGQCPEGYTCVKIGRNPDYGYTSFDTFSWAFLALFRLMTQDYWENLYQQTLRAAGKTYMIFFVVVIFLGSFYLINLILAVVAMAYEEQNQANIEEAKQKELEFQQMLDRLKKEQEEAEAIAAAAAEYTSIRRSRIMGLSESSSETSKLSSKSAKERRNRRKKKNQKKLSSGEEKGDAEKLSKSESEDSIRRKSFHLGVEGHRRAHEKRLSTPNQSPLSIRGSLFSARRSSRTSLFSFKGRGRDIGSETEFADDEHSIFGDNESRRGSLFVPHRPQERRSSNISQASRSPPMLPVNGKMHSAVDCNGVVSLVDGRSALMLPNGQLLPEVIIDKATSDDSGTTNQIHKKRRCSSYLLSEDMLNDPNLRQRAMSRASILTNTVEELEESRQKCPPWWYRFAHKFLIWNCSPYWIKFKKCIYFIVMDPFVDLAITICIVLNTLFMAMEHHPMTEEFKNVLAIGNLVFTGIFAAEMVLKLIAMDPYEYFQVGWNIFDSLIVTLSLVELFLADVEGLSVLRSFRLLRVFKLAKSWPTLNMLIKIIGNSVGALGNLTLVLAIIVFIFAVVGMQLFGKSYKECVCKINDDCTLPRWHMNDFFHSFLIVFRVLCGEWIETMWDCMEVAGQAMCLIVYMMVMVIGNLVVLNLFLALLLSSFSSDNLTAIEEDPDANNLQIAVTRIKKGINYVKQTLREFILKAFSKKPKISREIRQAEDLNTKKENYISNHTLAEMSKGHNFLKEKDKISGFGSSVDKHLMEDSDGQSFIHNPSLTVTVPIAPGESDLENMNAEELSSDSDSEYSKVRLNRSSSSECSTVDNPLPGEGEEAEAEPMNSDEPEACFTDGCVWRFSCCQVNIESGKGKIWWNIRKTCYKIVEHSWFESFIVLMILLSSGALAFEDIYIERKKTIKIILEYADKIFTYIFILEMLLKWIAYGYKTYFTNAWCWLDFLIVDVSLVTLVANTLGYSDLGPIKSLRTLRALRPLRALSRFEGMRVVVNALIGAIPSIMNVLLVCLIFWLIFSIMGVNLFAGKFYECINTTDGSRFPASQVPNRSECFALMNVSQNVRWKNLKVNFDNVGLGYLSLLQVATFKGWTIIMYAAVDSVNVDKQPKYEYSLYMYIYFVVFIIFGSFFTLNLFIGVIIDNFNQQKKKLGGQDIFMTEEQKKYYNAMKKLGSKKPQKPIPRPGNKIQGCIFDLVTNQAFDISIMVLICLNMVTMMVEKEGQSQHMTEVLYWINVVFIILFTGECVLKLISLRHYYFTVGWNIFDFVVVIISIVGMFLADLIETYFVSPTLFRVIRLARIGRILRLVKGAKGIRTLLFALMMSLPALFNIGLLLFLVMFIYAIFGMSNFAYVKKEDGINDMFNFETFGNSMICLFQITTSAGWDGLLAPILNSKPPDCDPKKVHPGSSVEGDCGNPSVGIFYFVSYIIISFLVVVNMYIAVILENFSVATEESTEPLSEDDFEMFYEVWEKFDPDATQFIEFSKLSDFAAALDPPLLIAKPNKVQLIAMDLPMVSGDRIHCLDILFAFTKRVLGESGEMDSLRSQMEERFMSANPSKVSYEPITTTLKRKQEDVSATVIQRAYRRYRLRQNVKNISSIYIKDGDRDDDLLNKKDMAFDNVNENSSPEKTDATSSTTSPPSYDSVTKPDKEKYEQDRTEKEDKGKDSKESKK

F224A NaChBac = assay type: cell-based, Bacillus halodurans; conditions: for effect on F224A NaChBac channel currents: 7 µM

Sequence of NaChBac (Q9KCR8 1-274): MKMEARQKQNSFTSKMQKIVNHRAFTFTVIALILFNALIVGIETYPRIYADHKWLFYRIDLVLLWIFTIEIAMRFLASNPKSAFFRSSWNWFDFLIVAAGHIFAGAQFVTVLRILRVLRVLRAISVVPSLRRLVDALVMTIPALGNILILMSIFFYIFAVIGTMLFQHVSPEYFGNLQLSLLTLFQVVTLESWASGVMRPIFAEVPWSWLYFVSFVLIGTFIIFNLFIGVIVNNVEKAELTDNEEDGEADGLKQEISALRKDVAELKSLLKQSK

## Cc1cccc(C)c1NC(=O)CC12CCCN1CCC2 [Pilsicaineide]
NaChBac
  % of block in NaChBac: 50.5±2.7%

## CCN1C[C@]2(COC)[C@H](O)C[C@H](OC)[C@@]34[C@@H]5C[C@@]6(O)[C@H](OC(=O)c7ccccc7)[C@@H]5[C@@](OC(C)=O)([C@@H]([C@H](OC)[C@H]23)[C@@H]14)[C@@H](O)[C@@H]6OC [Aconitine]
NaChBac
  G–V slope factor k[n], NaChBac, after compound: 5.0 ± 0.2
  Hill slope, NaChBac dose-response: 1.0
  IC50: 1.3 µM
  effect on NaChBac channel currents: significantly blocked peak inward Na^+ current
NaChBac; 2 µM
  block of NaChBac channel: ~ 50%
NaChBac; 7 µM
  inhibition at 7 µM: ~80%
F227A NaChBac; 7 µM
  effect on F227A NaChBac channel currents: reduced effect
Human NaV1.7
  G–V slope factor k[n], NaV1.7, after compound: 6.7 ± 0.2
  Hill slope, NaV1.7 dose-response: 1.6
  IC50: 7.4 µM
Human NaV1.7; 7 µM
  block of NaV1.7 channel: ~ 50%
F224A NaChBac
  effect on F224A NaChBac channel currents: no effect

## CCCCN1CCCCC1C(=O)Nc1c(C)cccc1C (stereo not shown) [Bupivacaine]
NaChBac; hek 293 cells
  % of block in NaChBac: 46.6±2.9%

## CCN(CC)CC(=O)Nc1c(C)cccc1C [Lidocaine]
NaChBac
  G–V slope factor k[n], NaChBac, after compound: 4.8 ± 0.4
NaChBac; hek 293 cells
  % of block in NaChBac: 74.1±2.3%
F227A NaChBac
  lidocaine block of F227A NaChBac channels versus WT: no change in block
Human NaV1.7
  G–V slope factor k[n], NaV1.7, after compound: 7.8 ± 0.2
F224A NaChBac
  lidocaine block of F224A NaChBac channels versus WT: decreased but still robust block

## COc1ccc(CCN(C)CCCOc2nsc(-c3ccccc3)n2)cc1OC [kc12291]
NaChBac; hek 293 cells
  % of block in NaChBac: 76.3±1.1%

## Nc1c(Br)cc(Br)cc1CN[C@H]1CC[C@H](O)CC1 [Ambroxol]
NaChBac
  G–V slope factor k[n], NaChBac, after compound: 5.7 ± 0.6
  effect on NaChBac channel currents: robust inhibition
NaChBac; hek 293 cells
  % of block in NaChBac: 93.6±3.8%
Human NaV1.7
  G–V slope factor k[n], NaV1.7, after compound: 6.7 ± 0.2
  effect on NaV1.7 channel currents: robust inhibition

## GSMTx-4
NaChBac
  % of block in NaChBac: -5.1±3.0%

## CC[N+](CC)(CC)CC(=O)Nc1c(C)cccc1C [QX-314]
NaChBac; hek 293 cells
  % of block in NaChBac: 16.2±2.6%

## COc1ccccc1OCC(O)CN1CCN(CC(=O)Nc2c(C)cccc2C)CC1 (stereo not shown) [Ranolazine]
NaChBac; hek 293 cells
  % of block in NaChBac: 42.5±4.3%

## COc1ccc(C(=O)O[C@H]2CC[C@@]3(C)[C@@H]4CC[C@H]5[C@]6(O)C[C@H](O)[C@@]7(O)[C@@H](CN8C[C@@H](C)CC[C@H]8[C@@]7(C)O)[C@]6(O)C[C@@]53O[C@]24O)cc1OC [Veratridine]
NaChBac
  G–V slope factor k[n], NaChBac, after compound: 10.3 ± 0.3
  Hill slope, NaChBac dose-response: 0.3
  effect on NaChBac channel currents: significantly blocked peak inward Na^+ current
NaChBac; 7 µM
  ΔV1/2 of G–V curve, WT NaChBac: 7.7 ± 1.8 mV
  inhibition at 7 µM: 55.6 ± 2%
NaChBac; hek 293 cells
  % of block in NaChBac: 65.6±3.2%
NaChBac; read-out: IC50 for NaChBac
  IC50: 8.1 µM
F227A NaChBac; 7 µM
  inhibition of F227A NaChBac peak currents: 65.1 ± 1.7%
  ΔV1/2 of G–V curve, F227A NaChBac: 20.1 ± 2.3 mV
F224A NaChBac
  effect on F224A NaChBac channel currents: minimal or no block

## COc1cc(NC(=O)c2ccc(-c3ccc(Cl)cc3)o2)cc(OC)c1 [A-803467]
NaChBac
  % of block in NaChBac: -6.3±4.1%
  effect on NaChBac channel currents: no effects

## Cc1ccc(C(=O)C(C)CN2CCCCC2)cc1 (stereo not shown) [Tolperisone]
NaChBac; hek 293 cells
  % of block in NaChBac: 86.2±2.5%

## Huwentoxin-IV
NaChBac
  % of block in NaChBac: -6.7±2.9%

## ProTx-I
NaChBac
  % of block in NaChBac: -2.0±3.0%

## NC(=O)N1c2ccccc2CC(=O)c2ccccc21 [oxcarbazepine]
NaChBac; hek 293 cells
  % of block in NaChBac: 18.2±2.5%

## C[C@H](NCc1ccc(OCc2ccccc2F)cc1)C(N)=O [Ralfinamide]
NaChBac; hek 293 cells
  % of block in NaChBac: 97.7±3.0%

## ProTx-II
NaChBac
  % of block in NaChBac: 7.7±3.3%
  effect on NaChBac channel currents: no effect

## Cc1cccc(C)c1OCC(C)N (stereo not shown) [Mexiletine]
NaChBac; hek 293 cells
  % of block in NaChBac: 74.2±1.8%

## NC1=N[C@H](O)[C@H]2[C@H]3O[C@]4(O)O[C@@H]([C@@H](O)[C@@]2(N1)[C@@H]4O)[C@]3(O)CO [ttx, tetrodotoxin]
NaChBac
  % of block in NaChBac: 0.5±3.6%
  effect on NaChBac channel currents: did not significantly alter currents

## QX-222
NaChBac
  % of block in NaChBac: 15.3±2.7%

## Cc1cccc(C)c1NC(=O)C1CCCCN1C (stereo not shown) [Mepivacaine]
NaChBac; hek 293 cells
  % of block in NaChBac: 67.7±2.5%
